Drawing on ChEMBL document CHEMBL3217590, “Discovery of a new class of dithiocarbamates and rhodanine scaffolds as potent antifungal agents: synthesis, biology and molecular docking” (Medchemcomm, 2012), this text covers MIC, Activity and Ratio for 11 molecules.

In brackets after ≈: the same amount, converted by molar mass. Bounds are passed on as bounds.

Data set [1] deals with Candida parapsilosis. In words: Antifungal activity against Candida parapsilosis ATCC22019 after 24 to 48 hrs by broth microdilution technique. In kind it is functional. Particulars: Lodderomyces parapsilosis.
Data set [2] deals with Cryptococcus neoformans. Put plainly: Antifungal activity against Cryptococcus neoformans after 24 to 48 hrs by broth microdilution technique. In kind it is functional.
Data set [3] has as its system Aspergillus fumigatus. Put plainly: Antifungal activity against Aspergillus fumigatus after 72 to 96 hrs by broth microdilution technique. Type of data set: functional.
Data set [4] relates to Trichophyton mentagrophytes. In words: Antifungal activity against Trichophyton mentagrophytes after 72 to 96 hrs by broth microdilution technique. Type of data set: functional.
For data set [5], the system named is Sporothrix schenckii. Put plainly: Antifungal activity against Sporothrix schenckii after 72 to 96 hrs by broth microdilution technique. In kind it is functional.
Data set [6] deals with Candida albicans. Put plainly: Antifungal activity against Candida albicans after 24 to 48 hrs by broth microdilution technique. In kind it is functional.
Data set [7] relates to Candida albicans. Put plainly: Anticandidal activity against Candida albicans ATCC14053 after 24 to 48 hrs by broth microdilution technique. Type of data set: functional.
Data set [8] deals with Candida albicans. In words: Anticandidal activity against Candida albicans MTCC183 after 24 to 48 hrs by broth microdilution technique. Type of data set: functional.
Data set [9] relates to Candida albicans. Put plainly: Anticandidal activity against Candida albicans CDRI after 24 to 48 hrs by broth microdilution technique. In kind it is functional.
Data set [10] deals with Candida albicans. In words: Anticandidal activity against amphotericin-B resistant Candida albicans after 24 to 48 hrs by broth microdilution technique. In kind it is functional.
Data set [11] relates to Candida albicans. In words: Anticandidal activity against Candida albicans isolated from patient after 24 to 48 hrs by broth microdilution technique. In kind it is functional.
In data set [12] the test system is Candida albicans. Put plainly: Anticandidal activity against Candida albicans ATCC750 after 24 to 48 hrs by broth microdilution technique. Type of data set: functional.
Data set [13] concerns L929. Put plainly: Cytotoxicity against mouse L929 cells assessed as decline in cell survival at 12.5 to 50 ug/ml after 24 hrs by spectrophotometric analysis. Type of data set: cell-based. Particulars: l929, 24 h.
The subject of data set [14] is L929. In words: Cytotoxicity against mouse L929 cells assessed as morphological changes up to 3.12 ug/ml after 24 hrs by giemsa staining based phase contrast microscopy. Type of data set: cell-based. Conditions: l929, 24 h.
The subject of data set [15] is Candida albicans. Put plainly: Anticandidal activity against Candida albicans ATCC-MYA 2950 after 24 to 48 hrs by broth microdilution technique. Type of data set: functional.
In data set [16] the test system is Candida albicans. In words: Anticandidal activity against Candida albicans ATCC10231 after 24 to 48 hrs by broth microdilution technique. Type of data set: functional.
In data set [17] the test system is Candida albicans. Put plainly: Ratio of fluconazole MIC to compound MIC against amphotericin-B resistant Candida albicans after 24 to 48 hrs by broth microdilution technique. In kind it is functional.

As for `O=C1/C(=C/c2ccc(OCCCCOc3ccc(/C=C4\SC(=S)N(Cc5ccncc5)C4=O)cc3)cc2)SC(=S)N1Cc1ccncc1`, the MIC in [1], in data set [2], in data set [3], in data set [4], in [5] and in [6] was above 50 mg/L throughout.
Turning to `O=C1/C(=C/c2ccc([N+](=O)[O-])cc2)SC(=S)N1Cc1ccncc1`, the MIC in [1] was above 50 mg/L; in data set [2] it was above 50 mg/L; in data set [3], above 50 mg/L; in [4] it was above 50 mg/L; in data set [5], 25 mg/L (≈ 69.9 µM); in [6] it was 50 mg/L (≈ 140 µM).
Turning to `CCc1ccc(/C=C2\SC(=S)N(Cc3ccncc3)C2=O)cc1`, the MIC in [1], in data set [2], in [3], in data set [4], in [5] and in data set [6] was above 50 mg/L throughout.
Consider `O=C1/C(=C/c2cccc3ccccc23)SC(=S)N1Cc1ccncc1`, for which the MIC in data set [1] was 50 mg/L (≈ 138 µM); in [2] it was 50 mg/L (≈ 138 µM); in [3], above 50 mg/L; in data set [4], 25 mg/L (≈ 69 µM); in [5], 12.5 mg/L (≈ 34.5 µM); in data set [6], 25 mg/L (≈ 69 µM).
For the molecule `O=C1/C(=C/c2ccc(Cl)cc2)SC(=S)N1Cc1ccncc1`, the MIC in data set [1] is above 50 mg/L; in data set [2], above 50 mg/L; in data set [3], above 50 mg/L; in [4], above 50 mg/L; in data set [5], above 50 mg/L; in data set [6] it was 50 mg/L (≈ 144 µM).
`S=C(NCc1ccncc1)SCc1ccccc1`: the MIC in data set [7] is 0.78 mg/L (≈ 2.84 µM); in data set [8], 0.39 mg/L (≈ 1.42 µM); in data set [9], 1.56 mg/L (≈ 5.68 µM); in [1], 1.56 mg/L (≈ 5.68 µM); in data set [2] it was 1.56 mg/L (≈ 5.68 µM); in data set [10], 12.5 mg/L (≈ 45.6 µM). The MIC turned out to be 25 mg/L (≈ 91.1 µM) in data set [3]; 1.56 mg/L (≈ 5.68 µM) in [11]; 3.12 mg/L (≈ 11.4 µM) in data set [12]; 6.25 mg/L (≈ 22.8 µM) in data set [4]; 6.25 mg/L (≈ 22.8 µM) in data set [5]; 1.56 mg/L (≈ 5.68 µM) in [15]. The MIC in data set [6] and in data set [16] was 1.56 mg/L (≈ 5.68 µM) each time. The figures for the Activity entry in data set [13] and in data set [14] were “Toxic” and “Non-toxic”, respectively.
Turning to `OC(Cn1cncn1)(Cn1cncn1)c1ccc(F)cc1F` [FLUCONAZOLE], the MIC in data set [7] was determined as 0.25 mg/L (≈ 0.816 µM); in data set [8], 4 mg/L (≈ 13.1 µM); in [9], 0.125 mg/L (≈ 0.408 µM); in data set [1], 0.5 mg/L (≈ 1.63 µM); in data set [2], 2 mg/L (≈ 6.53 µM); in data set [10] it was 8 mg/L (≈ 26.1 µM). Besides, the MIC in [3] was above 32 mg/L; in data set [11] it was 0.25 mg/L (≈ 0.816 µM); in data set [12], 0.5 mg/L (≈ 1.63 µM); in data set [4], 16 mg/L (≈ 52.2 µM); in data set [5], 4 mg/L (≈ 13.1 µM); in data set [15] it was 0.062 mg/L (≈ 0.202 µM). For the same molecule, the MIC in [6] and in data set [16] was 1 mg/L (≈ 3.27 µM) throughout.
Regarding `O=C1/C(=C/c2ccccc2)SC(=S)N1Cc1ccncc1`, the MIC in data set [1] was 50 mg/L (≈ 160 µM); in data set [2], 50 mg/L (≈ 160 µM); in data set [3], above 50 mg/L; in [4] it was 50 mg/L (≈ 160 µM); in data set [5], 25 mg/L (≈ 80 µM); in data set [6], 25 mg/L (≈ 80 µM).
In the case of `O=C1/C(=C/c2ccccc2[N+](=O)[O-])SC(=S)N1Cc1ccncc1`, the MIC in data set [8] is 12.5 mg/L (≈ 35 µM); in data set [9] it was 50 mg/L (≈ 140 µM); in data set [1] it was 3.12 mg/L (≈ 8.73 µM); in data set [2], 6.25 mg/L (≈ 17.5 µM); in [10] it was 3.12 mg/L (≈ 8.73 µM); in [3], above 50 mg/L. For the same molecule, the MIC in [11] was found to be 25 mg/L (≈ 69.9 µM); in [12], 50 mg/L (≈ 140 µM); in data set [4] it was 6.25 mg/L (≈ 17.5 µM); in data set [5] it was 6.25 mg/L (≈ 17.5 µM); in data set [15] it was 50 mg/L (≈ 140 µM); in data set [6] it was 3.12 mg/L (≈ 8.73 µM). Besides, the Ratio in data set [17] is given as 2.
For `O=C1/C(=C/c2cc3c(cc2[N+](=O)[O-])OCO3)SC(=S)N1Cc1ccncc1`, the MIC in [7] worked out at 1.56 mg/L (≈ 3.89 µM); in [8] it was 3.12 mg/L (≈ 7.77 µM); in data set [9], 3.12 mg/L (≈ 7.77 µM); in data set [1], 3.12 mg/L (≈ 7.77 µM); in [2], 3.12 mg/L (≈ 7.77 µM); in [10] it was 12.5 mg/L (≈ 31.1 µM). In addition, the MIC is above 50 mg/L in data set [3]; 1.56 mg/L (≈ 3.89 µM) in data set [11]; 6.25 mg/L (≈ 15.6 µM) in data set [12]; 3.12 mg/L (≈ 7.77 µM) in data set [4]; 1.56 mg/L (≈ 3.89 µM) in [5]; 1.56 mg/L (≈ 3.89 µM) in [15]. For the same molecule, the figures for the MIC in data set [6] and in [16] were 0.78 mg/L (≈ 1.94 µM) and 3.12 mg/L (≈ 7.77 µM), respectively. Further, the Activity entry is listed as “Toxic” in [13] and “Non-toxic” in data set [14].
Regarding `O=C1/C(=C/c2ccc(/C=C3\SC(=S)N(Cc4ccncc4)C3=O)cc2)SC(=S)N1Cc1ccncc1`, the MIC in [1], in data set [2], in [3], in data set [4], in [5] and in data set [6] was above 50 mg/L throughout.
